Results on seven molecules are retold here after EP1325735A2, “Use of L-arginine derivatives as photo-protecting agents and enhancing melanic response in cosmetic compositions” (EXSYMOL S.A.M., priority 2002, dated 2003).

A short description of experiment [1]: Hydroxyl radical OH• scavenging, deoxyribose protection test (Halliwell method). The settings on record: rate constant of S on OH•; mean (± SD) of 3 independent experiments. From the text: Le test, réalisé selon la méthode décrite par B. Halliwell et coll. […] Le pouvoir protecteur est déduit de la comparaison des cinétiques de réaction, exprimées par une constante de vitesse de S sur OH• (piégeage de OH•).
Les constantes de vitesse correspondent à la valeur moyenne (± D.S.) calculée à partir de 3 expériences indépendantes

Experiment [2] concerns co-culture in vitro de mélanocytes et de kératinocytes. In words: In vitro melanocyte/keratinocyte co-culture model of the "mélano-épidermique" unit: melanic response after UV. It counts as cell-based. The settings on record: for réponse mélanique: co-culture + MdC "ARG-free" irradiée par UVB: ARG-free medium (insufficient physiological arginine); for réponse mélanique: co-culture + MdC "ARG-free" irradiée par UVB / réponse mélanique: co-culture + MdC "ARG = 84mg/L" irradiée par UVB: UVB irradiated; for réponse mélanique: co-culture + MdC "ARG = 84mg/L" irradiée par UVB / réponse mélanique: co-culture + MdC "ARG = 84mg/L" sans irradiation: standard medium with supra-physiological arginine; for réponse mélanique: co-culture + MdC "ARG = 84mg/L" sans irradiation: no irradiation. Set-up: unit not given here. The text has this: Test 2 : démonstration de l'effet des dérivés d'arginine sur l'unité "mélano-épidermique" et la réponse mélanique
Nous avons mis au point un modèle expérimental reproduisant l'unité "mélano-épidermique", et qui permet de mettre en évidence les effets d'un apport exogène de dérivés d'arginine sur la réponse mélanique à la suite de rayonnements U.V. (effet direct sur les mélanocytes et indirect via la "communication cellulaire" entre kératinocytes et mélanocytes). Il s'agit d'un modèle de co-culture in vitro de mélanocytes et de kératinocytes (voir représentation schématique du modèle), possédant un milieu de culture (MdC) particulier. [drawing]
Le fond poreux de la chambre supérieure permet le passage, d'un compartiment à l'autre, des facteurs endogènes sécrétés par les cellules (NO) et la substance (S).

Molecules are shown by their SMILES. Square brackets hold non-standard residues; d marks the D form. Peptide text beside a SMILES is read from it. ξ: configuration not given here. ξM = CSCCC(N)C(=O)O

For `CCOC(=O)[C@H](CCCNC(=N)N)NC(=O)[C@H](Cc1ccc(O)cc1)NC(C)=O` [NAc-L-TYR-L-ARG-OEt, N-acetyl-L-tyrosyl-L-arginine ethyl ester], the “constante de vitesse de piégeage” value in experiment [1] is given as 8,1 (±0,3)x10^9 M^-1.S^-1.
The same measure, in the same setting: for `N=C(N)NCCC[C@H](N)C(=O)O` [L-arginine] the value was 1,5 (±0,2)x10^9 M^-1.S^-1; for `CCOC(=O)[C@@H](NC(=O)[C@H](CCCNC(=N)N)NC(C)=O)[C@@H](C)CC` [NAc-L-ARG-L-ILE-OEt, N-acetyl-L-arginyl-(D ou L)-isoleucine ethyl ester] (Ac-Arg-Ile-OEt), 6,1 (±0,4)x10^9 M^-1.S^-1; for `N[C@@H](Cc1c[nH]cn1)C(=O)O` [L-histidine, reference compound], 2,5 (±0,2)x10^9 M^-1.S^-1.
On the same count and under the same terms, for `CCOC(=O)[C@H](CCCNC(=N)N)NC(=O)C(CCSC)NC(C)=O` (stereo partly drawn) [NAc-(D,L)-MET-L-ARG-OEt, N-acetyl-(D ou L)methionyl-L-arginine ethyl ester] (Ac-[ξM]-Arg-OEt) the value was 0,7 (±0,2)x10^10 M^-1.S^-1.
As to `CCOC(=O)[C@H](CCCNC(=N)N)NC(=O)[C@H](Cc1c[nH]cn1)NC(C)=O` [NAc-L-HIS-L-ARG-OEt, N-acetyl-(D ou L)-histidyl-L-arginine ethyl ester] (Ac-His-Arg-OEt), in experiment [1], the “constante de vitesse de piégeage” value was 9,0 (±0,2)x10^9 M^-1.S^-1. Moreover, in experiment [2] (substance 0,12 mM), the “réponse mélanique: co-culture + MdC "ARG-free" irradiée par UVB” value was 38,8, the “réponse mélanique: co-culture + MdC "ARG = 84mg/L" irradiée par UVB” value is 41,6 and the “réponse mélanique: co-culture + MdC "ARG = 84mg/L" sans irradiation” value is 22,7. In experiment [2] (substance 0,24 mM), the “réponse mélanique: co-culture + MdC "ARG-free" irradiée par UVB” value is 41,0, the “réponse mélanique: co-culture + MdC "ARG = 84mg/L" irradiée par UVB” value is 36,2 and the “réponse mélanique: co-culture + MdC "ARG = 84mg/L" sans irradiation” value was 22,5. In experiment [2] (substance 0,48 mM), the “réponse mélanique: co-culture + MdC "ARG-free" irradiée par UVB” value was 42,5, the “réponse mélanique: co-culture + MdC "ARG = 84mg/L" irradiée par UVB” value is 40,7 and the “réponse mélanique: co-culture + MdC "ARG = 84mg/L" sans irradiation” value is given as 18,8.
For the molecule `CCOC(=O)[C@H](CCCNC(=N)N)NC(C)=O` [NAc-L-ARG-OEt, N-acetyl-L-arginine ethyl ester], the “constante de vitesse de piégeage” value in experiment [1] is given as 5,2 (±0,2)x10^9 M^-1.S^-1. Further, in experiment [2] (substance 0,12 mM), the “réponse mélanique: co-culture + MdC "ARG-free" irradiée par UVB” value is reported as 30,7, the “réponse mélanique: co-culture + MdC "ARG = 84mg/L" irradiée par UVB” value is 39,5 and the “réponse mélanique: co-culture + MdC "ARG = 84mg/L" sans irradiation” value is 23,1. Besides, in experiment [2] (substance 0,24 mM), the “réponse mélanique: co-culture + MdC "ARG-free" irradiée par UVB” value is recorded as 37,5, the “réponse mélanique: co-culture + MdC "ARG = 84mg/L" irradiée par UVB” value is given as 42,6 and the “réponse mélanique: co-culture + MdC "ARG = 84mg/L" sans irradiation” value is 20,9. Moreover, in experiment [2] (substance 0,48 mM), the “réponse mélanique: co-culture + MdC "ARG-free" irradiée par UVB” value is 43,8, the “réponse mélanique: co-culture + MdC "ARG = 84mg/L" irradiée par UVB” value is recorded as 38,4 and the “réponse mélanique: co-culture + MdC "ARG = 84mg/L" sans irradiation” value is 24,4.
